# “And” between values parts separate entries of the source, which are not always exact repeats. Identical values can stand only once.
# Tests used:
# [1] = test system: OVCAR-3 human ovarian cancer cells; assay: Inhibition of OVCAR-3 cell proliferation (MTT); format: cell-based; conditions: 100 μg/ml, 48 h, 5×10^5 cells/ml
# Description: Cells were seeded in 6 (1 ml/well), 24 (0.5 ml/well) or 96 (0.1 ml/well) well flat-bottom microplates and were maintained at 37° C. in a 5% CO2 atmosphere. Unless stated otherwise, 2.5×10^5 cells/ml were incubated with 0 μg/ml (control) and 100 μg/ml (treated) of 2 to 45 base sequences containing A, C, G and T for 48 h.
# Cell proliferation was measured using dimethylthiazol-diphenyl-tetrazolium (MTT) reduction (Mosman et al. J. Immunol. Methods 65:55, 1983). MTT was measured at a wavelength of 570 nm using a multiplate spectrophotometer reader (ELX800, Bio-TEK Instruments Inc., Winooski, Vt.).
# OVCAR-3 ovarian cancer cells are a p53 mutated, p21/waf-1/Cip deleted, metastatic human solid tumor model. OVCAR-3 cells (5×10^5 cells/ml) were incubated with 2, 6 and 18 base GT sequences and with a 6 base AGT sequence (Table 11).
# [2] = test system: PARP; assay: PARP cleavage by Western blot; format: cell-based, human; conditions: Jurkat, 72 h, 100 μg/ml (FIG. 3B)
# Description: Jurkat T cell leukemia cells were incubated for 72 h with 6 base GT SEQ ID NO:25. The cells were washed 3× with PBS, lysed with 10 mM HEPES, pH 7.5 containing 5 mM MgCl2, 1 mM dithiothreitol, 1.5 nM aprotinin, 10 mM leupeptin and 2.5 μm Na orthovanadate, and the protein content of the lysate was determined (Bradford J. Anal. Biochem. 72:248, 1976).
# Activated caspase 7 and PARP cleavage were detected by Western blot analysis. Lysate was mixed with Laemmli buffer (Laemmli U. Nature […], 1970), shaken, and heated at 100° C. for 4 min. […] The separated proteins were electroblotted onto a PVDF membrane. Equal protein loading was monitored by Ponceau red staining of the membrane.
# The membrane was blocked overnight at 4° C. with a buffer containing 1% Tris-buffered saline (2 mM Tris-HCl, 13.7 mM NaCl, pH 7.6, and 0.1% polyethylenesorbitan monolaurate (TWEEN 20) (TBST) +5% non-fat dry milk. The membrane was washed and was incubated for 1 h at RT with a mouse monoclonal IgG anti-caspase 7 antibody (Pharmingen) (diluted 1:1000 in TBST+1% BSA) or with a mouse monoclonal IgG anti-PARP antibody (diluted 1:1000 in TBST+1% BSA) (Pharmingen). IgG bound to caspase 7 or to PARP was detected with sheep anti-mouse IgG conjugated to horseradish peroxidase (diluted 1:1000 in TBST+5% non-fat dry milk) (Pharmingen). […]
# [3] = test system: LNCaP human prostate cancer cells; assay: LNCaP human prostate cancer xenografts in male nude nu/nu mice; format: in vivo; conditions: after 4 weeks of treatment, compared with other groups (group 1 saline, group 5 BCG A-3)
# Description: LNCaP human prostate cancer cells are implanted subcutaneously, as xenografts, in male nude nu/nu mice. The mice are divided into 5 groups of 10 mice. On day 0, group 1 mice receive saline, group 2 mice receive 3 base SEQ ID NO:8, group 3 mice receive 6 base GT SEQ ID NO:25, group 4 mice receive 6 base AG SEQ ID NO:45 and group 5 mice receive 45 base BCG A-3 SEQ ID NO:69. After 4 weeks of treatment, the mice are sacrificed and timor mass is determined.
# [4] = test system: EL-4 murine T lymphoma cells; assay: EL-4 murine T lymphoma in C57/BL6 mice; format: in vivo; conditions: after 4 weeks of treatment, compared with group 1 (saline)
# Description: EL-4 murine T lymphoma cells are implanted into C57/BL6 mice. The mice are divided into 6 groups of 10 mice. On day 0, group 1 mice receive saline, group 2 mice receive 3 base GT SEQ ID NO:8, group 3 mice receive 6 base SEQ ID NO:25, group 4 mice receive 6 base AG SEQ ID NO:45, group 5 mice receive 18 base GT SEQ ID NO: 18 and group 6 mice receive 27 base GT SEQ ID NO:1. After 4 weeks of treatment, the mice are sacrificed and tumor mass is determined.
sequence,measurement,setting,value
GGGTGG [SEQ ID NO:25],% INHIBITION of OVCAR-3 human ovarian cancer cell proliferation,[1],15% and 14%
same,PARP cleavage,[2],active PARP to its inactive 85 kDa degradation product
same,tumor mass,[3],less tumor mass than groups 1 and 5 mice
same,tumor mass,[4],less tumor mass than group 1 mice
